This note sets out measurements from patent US5814646A, “Inhibitors of amyloid beta-protein production” (Eli Lilly and Company, priority 1995, dated 1998).

The experiment deals with Aβ production in 293 751 SWE and CHO 751 SWE cells (transfected with APP-751 Swedish mutation). The experiment can be described thus: Aβ production inhibition activity in cells (Aβ ELISA of conditioned media, normalized for cytotoxicity by MTT). It counts as cell-based. Conditions: for IC50: 2 h pretreatment + 2 h incubation; for inhibition at 10 µg/mL: 10 μg/ml, % of drug-free control, normalized to MTT. Here is the method: Two cell lines (human kidney cell line 293 and Chinese hamster ovary cell line CHO) were stably transfected with the gene for APP-751 containing the double mutation Lys651 -Met652 to Asn651 -Leu652 (APP-751 numbering) commonly called the Swedish mutation using the method described in Citron et al., (1992) Nature 360:672-674. The transfected cell lines were designated as 293 751 SWE and CHO 751 SWE, and were plated in Corning 96 well plates at 2.5×10^4 or 1×10^4 cells per well respectively in Dulbecco's minimal essential media plus 10% fetal bovine serum. Following overnight incubation at 37° C. in an incubator equilibrated with 10% carbon dioxide (CO2), the media were removed and replaced with 200 μL per well of media containing a test compound. After a two hour pretreatment period, the media were again removed and replaced with fresh media containing the test compound and the cells were incubated for an additional two hours.
Test compound stocks were prepared in DMSO such that at the final concentration used in the treatment, the concentration of DMSO did no exceed 0.5%. After treatment, plates were centrifuged in a Beckman GPR at 1200 rpm for five minutes at room temperature to pellet cellular debris from the conditioned media. From each well, 100 μL of conditioned media were transferred into an ELISA plate precoated with antibody 266 against βAP-13-28 (Seubert et al., supra.) and stored at 4° C. overnight. An ELISA assay employing labeled antibody 6C6 (against βAP-1-16) was run the next day to measure the amount of Aβ produced.
Cytotoxic effects of the test compounds were measured by a modification of the method of Hansen et al., (1989) J. Immun. Meth. 119:203-210. To the cells remaining in the tissue culture plate, was added 25 μL of a 3, (4,5-dimethylthiazol-2-yl)2,5-diphenyltetrazolium bromide (MTT) stock solution (5 mg/mL) to a final concentration of […]. Cells were incubated at 37° C. for one hour, and cellular activity was stopped by the addition of an equal volume of MTT lysis buffer (20% w/v sodium dodecylsulfate in 50% DMF, pH 4.7). Complete extraction was achieved by overnight shaking at room temperature. The difference in the OD562 nm and the OD650 nm was measured in a Molecular Devices UVmax microplate reader as an indicator of the cellular viability.
The results of the Aβ ELISA were fit to a standard curve and expressed as ng/mL Aβ peptide. In order to normalize for cytotoxicity, these Aβ results were divided by the MTT results and expressed as a percentage of the results from a drug -free control.
The test compounds were assayed for Aβ production inhibition activity in cells at […] using the test. The results presented in Table 1 are the mean and standard deviation of at least six replicate assays. IC50 means the concentration of test compound in micromoles/liter required to inhibit Aβ production by 50%.
Background: An ELISA detects its analyte on a solid surface through an enzyme-linked reagent.

A word on the IC50: it is the concentration that inhibits the measured activity by half. Regarding `CC(C)(C)c1ccc(Oc2ccc(NC(=S)NCCc3ccccc3)cc2)cc1` [Compound 116], the IC50 stood at 19.8 µM.

For `CC(C)(C)c1ccc(Oc2ccc(NC(=S)NCCCc3ccccc3)cc2)cc1` [Compound 117], the IC50 turned out to be 17 µM.

For `CC(C)(C)c1ccc(Oc2ccc(NC(=S)NCCCCc3ccccc3)cc2)cc1` [Compound 118], the half-maximal inhibitory concentration (IC50) is 16.4 µM.

As to `CC(C)(C)c1ccc(Oc2ccc(NC(=S)NC3CCCCC3)cc2)cc1` [Compound 119], the IC50 was found to be 15.2 µM.

In the case of `CC(C)(C)c1ccc(Oc2ccc(NC(=S)NCc3ccccn3)cc2)cc1` [Compound 120], the IC50 amounted to 15.6 µM.

A word on the inhibition: it is the percentage by which the read-out fell short of the control. A higher inhibition goes with a strong effect. For the compound `CC(C)(C)c1ccc(Oc2ccc(NC(=S)NCc3cccnc3)cc2)cc1` [Compound 121], testing at 10 µg/mL gave an inhibition of 37%.

Take `CC(C)(C)c1ccc(Oc2ccc(NC(=S)NCc3ccncc3)cc2)cc1` [Compound 122]: the IC50 was found to be 23.5 µM.

In the case of `CC(C)(C)c1ccc(Oc2ccc(NC(=S)NCCc3ccccn3)cc2)cc1` [Compound 123], the IC50 is 12.3 µM.

`CC(C)(C)OC(=O)N1CCCCC1CNC(=S)Nc1ccc(Oc2ccc(C(C)(C)C)cc2)cc1` (stereo not shown) [Compound 124]: 10 µg/mL produced 31% inhibition.

With `CC(C)(C)OC(=O)N1CCCC(CNC(=S)Nc2ccc(Oc3ccc(C(C)(C)C)cc3)cc2)C1` (stereo not shown) [Compound 125], the IC50 was determined as 9.3 µM.

In the case of `CC(C)(C)c1ccc(Oc2ccc(NC(=S)NCC3CCCCN3)cc2)cc1` (stereo not shown) [Compound 126], the IC50 turned out to be 7 µM.

For `CC(C)(C)c1ccc(Oc2ccc(NC(=S)NCC3CCCNC3)cc2)cc1` (stereo not shown) [Compound 127], the IC50 is 11.7 µM.

As for `CC(C)(C)c1ccc(Oc2ccc(NC(=S)NCc3ccc(F)cc3F)cc2)cc1` [Compound 128], the IC50 worked out at 7.3 µM.

Take `CC(C)(C)c1ccc(Oc2ccc(NC(=S)NCc3ccc(F)c(F)c3)cc2)cc1` [Compound 129]: the IC50 stood at 4.5 µM.

Regarding `CC(C)(C)c1ccc(Oc2ccc(NC(=S)NCc3ccc(F)cc3Cl)cc2)cc1` [Compound 130], the concentration for half-maximal inhibition (IC50) came to 7.2 µM.

As to `CC(C)(C)c1ccc(Oc2ccc(NC(=S)NCc3ccc(F)c(Cl)c3)cc2)cc1` [Compound 131], the half-maximal inhibitory concentration (IC50) is 5 µM.

With `CC(C)(C)c1ccc(Oc2ccc(NC(=S)NCc3ccc(F)cc3C(F)(F)F)cc2)cc1` [Compound 132], the IC50 was determined as 8 µM.

As for `CC(C)(C)c1ccc(Oc2ccc(NC(=S)NCc3ccc(Cl)c(Cl)c3)cc2)cc1` [Compound 133], the IC50 turned out to be 6.5 µM.

For `CC(C)(C)c1ccc(Oc2ccc(NC(=S)NCc3nnc(C(F)(F)F)s3)cc2)cc1` [Compound 134], the IC50 amounted to 10.2 µM.

Take `CCCCCCNC(=S)Nc1ccc(Oc2ccc(C(C)(C)C)cc2)cc1` [Compound 135]: the IC50 was found to be 10.6 µM.

With `O=C(Nc1ccc(Cl)c(Cl)c1)Nc1cccc2ncccc12` [Compound 136], the IC50 stood at 17.8 µM.

On to `O=C(Nc1ccc(Cl)c(Cl)c1)Nc1nc2ccccc2s1` [Compound 137], for which the IC50 is 10.3 µM.

With `O=C(Nc1ccc(Cl)c(Cl)c1)Nc1ncccn1` [Compound 138], 10 µg/mL produced 7% inhibition.

With `S=C(Nc1ccc(Cl)cc1)Nc1ccc(Cl)c(Cl)c1` [Compound 139], the IC50 amounted to 6.6 µM.

`O=C(Nc1ccc(Cl)c(Cl)c1)Nc1nc2ccccc2[nH]1` [Compound 140]: the IC50 is 17.4 µM.

`COC(=O)c1ccccc1NC(=O)Nc1ccc(Cl)c(Cl)c1` [Compound 142] gave an inhibition at 10 µg/mL of 22%.

As to `Cc1cc2nc(NC(=O)Nc3ccc(Cl)c(Cl)c3)[nH]c2cc1C` [Compound 143], the IC50 turned out to be 14.9 µM.

In turn, `COc1ccc(NC(=O)Nc2ccc(Cl)c(Cl)c2)c(OC)c1` [Compound 144] had an inhibition at 10 µg/mL of 41%.

In the case of `O=C(Nc1ccc(Sc2ccc(Cl)c(Cl)c2)cc1)Nc1ccc(Cl)c(Cl)c1` [Compound 145], the IC50 worked out at 6.2 µM.

Take `S=C(NCc1ccccc1)Nc1ccc(Cl)c(Cl)c1` [Compound 146]: the IC50 is 21.8 µM.

On to `FC(F)(F)c1cccc(NC(=S)Nc2ccc(Cl)c(Cl)c2)c1` [Compound 147], for which the IC50 came to 4.7 µM.

Consider `S=C(Nc1ccc(Oc2ccccc2)cc1)Nc1ccc(Cl)c(Cl)c1` [Compound 148], for which the IC50 worked out at 7.5 µM.

Turning to `CSc1ccc(NC(=O)Nc2ccc(Cl)c(Cl)c2)cc1` [Compound 149], the IC50 was 13.8 µM.

Turning to `CSc1ccc(NC(=O)Nc2ccc(Cl)c(Cl)c2)cc1Br` [Compound 150], the IC50 was 5.2 µM.

On to `O=C(Nc1ccc(Cl)c(Cl)c1)Nc1ccccc1Cl` [Compound 151], for which the IC50 was 10.1 µM.

For the compound `O=C(Nc1ccccc1)Nc1ccc(Cl)c(Cl)c1` [Compound 152], the IC50 is 11.4 µM.

Turning to `S=C(Nc1ccc(Cl)c(Cl)c1)Nc1ccc(Cl)c(Cl)c1` [Compound 153], the IC50 was found to be 1.7 µM.

For `CSc1ccc(NC(=O)Nc2ccc(Cl)c(Cl)c2)cc1` [Compound 154], the IC50 is 8.6 µM.

Take `CSc1ccc(NC(=O)Nc2cc(Cl)c(Cl)c(Cl)c2)cc1` [Compound 155]: the half-inhibitory concentration (IC50) worked out at 5.8 µM.

Turning to `CSc1ccc(NC(=O)Nc2ccc(Cl)cc2)cc1` [Compound 156], testing at 10 µg/mL gave an inhibition of 13%.

`CSc1ccc(NC(=O)Nc2ccccc2Cl)cc1` [Compound 157]: the inhibition at 10 µg/mL was 41%.

Compound `CSc1ccc(NC(=O)Nc2cccc(Cl)c2Cl)cc1` [Compound 158] displayed an inhibition at 10 µg/mL of 51%.

As for `CSc1ccc(NC(=O)Nc2ccc(Cl)cc2Cl)cc1` [Compound 159], the inhibition at 10 µg/mL is 4%.

The compound `CSc1ccc(NC(=O)Nc2cc(Cl)c(Cl)cc2C)cc1` [Compound 160] showed an inhibition at 10 µg/mL of 48%.

In turn, `CS(=O)(=O)c1ccc(NC(=O)Nc2ccc(Cl)cc2)cc1` [Compound 161] had an inhibition at 10 µg/mL of 40%.

In the case of `CSc1ccc(NC(=O)Nc2cccc(Cl)c2)cc1Br` [Compound 162], the IC50 came out at 5.7 µM.

As to `CSc1cc(Cl)c(NC(=O)Nc2cccc(Cl)c2)cc1Cl` [Compound 163], the 50% inhibitory concentration (IC50) came to 10.5 µM.

With `CSc1ccc(NC(=O)Nc2ccc(SC)c(Br)c2)cc1` [Compound 164], the IC50 came to 14.4 µM.

`COC(=O)c1ccc(NC(=O)Nc2ccc(Cl)c(C(F)(F)F)c2)cc1OC` [Compound 165] displayed an inhibition at 10 µg/mL of 42%.

As for `FC(F)(F)c1cc(NC(=S)Nc2ccc(Cl)c(C(F)(F)F)c2)ccc1Cl` [Compound 166], the IC50 is 2.8 µM.

On to `CC(C)(C)c1ccc(Oc2cccc(NC(=S)Nc3ccc(Cl)c(C(F)(F)F)c3)c2)cc1` [Compound 168], for which the IC50 was determined as 3.9 µM.

Take `CC(C)(C)c1cccc(Oc2ccc(NC(=S)Nc3ccc(Cl)c(C(F)(F)F)c3)cc2)c1` [Compound 169]: the IC50 came to 4.6 µM.

In the case of `CC(C)(C)c1ccc(Oc2ccccc2NC(=S)Nc2ccc(Cl)c(C(F)(F)F)c2)cc1` [Compound 170], the IC50 was determined as 4.4 µM.

Regarding `CC(C)(C)c1ccc(Oc2ccccc2N(O)C(=S)Nc2ccc(Cl)c(C(F)(F)F)c2)cc1` [Compound 171], the IC50 was determined as 10.8 µM.

As for `CC(C)(C)c1cccc(Oc2cccc(NC(=S)Nc3ccc(Cl)c(C(F)(F)F)c3)c2)c1` [Compound 172], the IC50 came out at 3.8 µM.

Consider `CC(C)(C)c1cccc(Oc2cccc(N(O)C(=S)Nc3ccc(Cl)c(C(F)(F)F)c3)c2)c1` [Compound 173], for which the half-inhibitory concentration (IC50) was found to be 2.8 µM.

With `CC(C)(C)c1ccccc1Oc1ccc(NC(=S)Nc2ccc(Cl)c(C(F)(F)F)c2)cc1` [Compound 174], 10 µg/mL produced 66% inhibition.

Regarding `CC(C)(C)c1ccc(Oc2ccc(NC(=S)Nc3cccc(C(F)(F)F)c3)cc2)cc1` [Compound 175], the IC50 turned out to be 7.3 µM.

Regarding `CC(C)(C)c1cccc(Oc2ccc(NC(=S)Nc3cccc(C(F)(F)F)c3)cc2)c1` [Compound 176], the IC50 worked out at 4.6 µM.

With `CC(C)(C)c1ccccc1Oc1ccc(NC(=S)Nc2cccc(C(F)(F)F)c2)cc1` [Compound 177], the IC50 turned out to be 7.6 µM.

Take `CC(C)(C)c1cccc(Oc2ccc(NC(=S)NCc3cccc(C(F)(F)F)c3)cc2)c1` [Compound 178]: the IC50 is 8.6 µM.

As for `CC(C)(C)c1ccc(Oc2ccc(NC(=S)NCc3cccc(C(F)(F)F)c3)cc2)cc1` [Compound 179], the concentration for half-maximal inhibition (IC50) amounted to 6.5 µM.

Take `CC(C)(C)c1ccc(Oc2ccccc2CN(O)C(=S)NCc2ccccc2)cc1` [Compound 180]: the IC50 worked out at 11.6 µM.

Take `CC(C)(C)c1ccc(Oc2ccccc2NC(=S)NCc2ccccc2)cc1` [Compound 181]: the inhibition at 10 µg/mL is 52%.
